PubChem BioAssay (NCI)
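Method: 48-hour compound exposure of cells in 96-well plates, five concentrations, linear interpolation of endpoints. TGI is the concentration that stops growth completely.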

How the values were obtained:
Experiment in all cases: NCI-60 cell line screen, 48 h
SK-MEL-5 melanoma = system: SK-MEL-5 melanoma
ACHN renal = system: ACHN renal
M14 melanoma = system: M14 melanoma
SF-539 CNS = system: SF-539 CNS
EKVX NSCLC = system: EKVX NSCLC
COLO 205 colon = system: COLO 205 colon
SF-268 CNS = system: SF-268 CNS
786-0 renal = system: 786-0 renal
NCI-H226 lung = system: NCI-H226 lung
RPMI-8226 leukemia = system: RPMI-8226 leukemia
HT29 colon = system: HT29 colon
UACC-257 melanoma = system: UACC-257 melanoma
HS 578T breast = system: HS 578T breast
SF-295 CNS = system: SF-295 CNS

| SMILES | TGI (SK-MEL-5 melanoma) [µM] | TGI (ACHN renal) [µM] | TGI (M14 melanoma) [µM] | TGI (SF-539 CNS) [µM] | TGI (EKVX NSCLC) [µM] | TGI (COLO 205 colon) [µM] | TGI (SF-268 CNS) [µM] | TGI (786-0 renal) [µM] | TGI (NCI-H226 lung) [µM] | TGI (RPMI-8226 leukemia) [µM] | TGI (HT29 colon) [µM] | TGI (UACC-257 melanoma) [µM] | TGI (HS 578T breast) [µM] | TGI (SF-295 CNS) [µM] |
| --- | --- | --- | --- | --- | --- | --- | --- | --- | --- | --- | --- | --- | --- | --- |
| O=C1C=CC2(C=C1)O[C@H](COCc1ccccc1)[C@@H](COCc1ccccc1)O2 | 3.22 | 3.1 | 3.88 | 3.62 | 3.66 | 3.35 | 3.69 | 2.22 | 3.89 | 1.94 | 5.88 | 3.56 | 4.87 | 30.3 |
| COc1cc2nc(-c3cccs3)nc(Nc3cccc([N+](=O)[O-])c3)c2cc1OC | > 100 | 38.3 | 33.5 | 34 | 33.1 | 54.1 | 43.6 | 40.9 | 58.7 | 98.3 | > 100 | 44.2 | 70.5 | 42.4 |
| Cc1ccc(S(=O)(=O)NNC(=O)Nc2cccc(C(F)(F)F)c2)cc1 | > 100 | > 100 | > 100 | > 100 | > 100 | > 100 | > 100 | > 100 | > 100 | > 100 | > 100 | > 100 | > 100 | > 100 |
| CC(NCc1c(O)ccc2c(-c3ccccc3)cc(=O)oc12)C(=O)O (centres undefined) | > 100 | > 100 | > 100 | > 100 | > 100 | > 100 | > 100 | > 100 | > 100 | > 100 | > 100 | > 100 | > 100 | > 100 |
| C=CCOC(=O)Cn1cnc2c(N)ncnc21 | > 100 | > 100 | > 100 | > 100 | > 100 | > 100 | > 100 | > 100 | > 100 | > 100 | > 100 | > 100 | > 100 | > 100 |
| CCOC(=O)c1nc2ccccc2nc1Oc1cc(OC)cc(OC)c1 | > 100 | > 100 | > 100 | > 100 | > 100 | > 100 | > 100 | > 100 | > 100 | > 100 | > 100 | > 100 | > 100 | > 100 |
| CC(=O)N1C=Cc2c(c(C)c3c([nH]c4ccccc43)c2C)C1 | 33.5 | 11.3 | 20.9 | 18.8 | 8.13 | 19.1 | 32.6 | 6.73 | 31.9 | 50.6 | 18 | 29.6 | 15.9 | 23.8 |
| Cc1cccc(Nc2nc3ccccc3nc2NS(=O)(=O)c2ccc(N)cc2)c1 | > 100 | > 100 | > 100 | 93.9 | > 100 | > 100 | > 100 | > 100 | > 100 | > 100 | > 100 | > 100 | > 100 | > 100 |
| O=C1c2ccccc2C(=O)N1/N=C1/SC(=Nc2ccccc2)C(=Nc2ccccc2)N1c1ccccc1 | > 90.3 | > 100 | > 100 | > 100 | > 100 | > 100 | > 100 | > 41.7 | > 100 | > 79.1 | > 100 | > 100 | > 100 | > 100 |
| Brc1ccc(C2=NCSC(c3ccc(Br)cc3)=N2)cc1 | 64.5 | > 100 | > 100 | 99.2 | 38.5 | > 100 | > 100 | 40.4 | > 100 | 63.5 | 86.3 | 71 | > 100 | > 100 |
| CC(C)(C)N(Cc1ccccc1)C(=O)/C=C\S(=O)c1ccccc1 (centres undefined) | 15.9 | 15.9 | 8.91 | 9.67 | 24.1 | 12.8 | 6.96 | 4.87 | 16.4 | 7.78 | 14.3 | 16.2 | 7.19 | 27.3 |
| COc1cccc(OC)c1C1ON=C(c2ccccc2)N1C12CC3CC(CC(C3)C1)C2 (centres undefined) | > 100 | > 100 | > 100 | > 100 | > 100 | > 100 | > 100 | > 100 | > 100 | > 100 | > 100 | > 100 | > 100 | > 100 |
| O=C1CSCC(=O)Nc2ccccc2N1 | > 100 | > 100 | > 100 | > 100 | > 100 | > 100 | > 100 | > 100 | > 100 | > 100 | > 100 | > 100 | > 100 | > 100 |
| COC(=O)c1c(O)c(C#N)c2[nH]c3ccccc3n2c1=O | > 100 | > 100 | > 100 | > 100 | > 100 | > 100 | > 100 | > 100 | > 100 | > 100 | > 100 | > 100 | > 100 | > 100 |
| CCCc1nnc2sc(COc3ccc(OCc4nn5c(CCC)nnc5s4)c(Cl)c3)nn12 | 21.2 | 59.1 | 73 | > 100 | 48.1 | > 100 | > 100 | > 100 | > 100 | > 100 | 98.9 | 51.1 | > 100 | > 100 |
| Clc1ccc(OCC2NC3CCC2CC3)cn1 (centres undefined) | 31.8 | > 100 | 36.5 | 38.5 | 60.6 | 32.4 | > 100 | 36.7 | > 100 | 32.5 | 33.3 | 36 | > 100 | 68.8 |
| CCCCNC(=O)OCCN=c1c2ccccc2ccc2ccccc12 | > 100 | > 100 | > 100 | > 100 | > 100 | > 100 | > 100 | > 100 | > 100 | > 100 | > 100 | > 100 | > 100 | > 100 |
| Fc1ccc(Nc2nc(Cl)c3[nH]cnc3n2)cc1Cl | > 100 | > 100 | > 100 | > 100 | > 100 | > 100 | > 100 | > 100 | > 100 | > 100 | > 100 | > 100 | > 100 | > 100 |
| CN1CCN(c2cc3[nH]c4cc(O)cc(O)c4c(=O)c3cc2N)CC1 | 50.1 | > 100 | > 100 | 17.4 | 87.9 | 32 | 52.5 | > 100 | 5.25 | 49.2 | 63.6 | > 100 | > 100 | > 100 |
| CN(C)c1cccc(-c2cc(=S)c3cc4c(cc3[nH]2)OCO4)c1 | > 100 | > 100 | > 100 | > 100 | > 100 | > 100 | > 100 | > 100 | > 100 | > 100 | 24.7 | > 100 | > 100 | > 100 |
| CC(=O)c1ccc(Br)cc1NC1=CC(=O)c2ncccc2C1=O | 1.3 | 12.5 | 10.6 | 6.96 | 19.4 | 11.4 | 21.7 | 15.3 | 15.5 | 8.95 | 12.3 | 4.94 | 35.6 | 14.3 |
